Measured values: ChEMBL document CHEMBL1124324, “Rational design of enzyme inhibitors: multisubstrate analogue inhibitors” (J Med Chem, 1989)
pKi: −log10 of the molar value.

Biological target: Thymidylate synthase (Homo sapiens, UniProt P04818)
Experiment: Inhibition of compound against thymidylate synthetase

Sequence of Thymidylate synthase (P04818 whole entry): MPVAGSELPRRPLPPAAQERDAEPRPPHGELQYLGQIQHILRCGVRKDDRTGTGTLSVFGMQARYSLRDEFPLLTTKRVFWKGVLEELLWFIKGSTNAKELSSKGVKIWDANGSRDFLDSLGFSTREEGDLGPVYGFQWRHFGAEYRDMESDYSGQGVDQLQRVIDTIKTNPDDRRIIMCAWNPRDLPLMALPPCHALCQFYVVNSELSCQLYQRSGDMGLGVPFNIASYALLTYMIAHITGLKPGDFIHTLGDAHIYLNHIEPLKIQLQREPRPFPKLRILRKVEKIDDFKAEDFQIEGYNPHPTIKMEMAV

Compound | pKi
CN1CCN(Cc2cn([C@H]3C[C@H](O)[C@@H](COP(=O)(O)O)O3)c(=O)[nH]c2=O)c2ccccc21 | 7.22
CN(CC1CNc2nc(N)[nH]c(=O)c2N1Cc1c[nH]c(=O)[nH]c1=O)c1ccc(C(=O)NC(CCC(=O)O)C(=O)O)cc1 (stereo not drawn) | 6.12
NC1=NC(=O)C2C(=N1)CCC(CNc1ccc(C(=O)NC(CCC(=O)O)C(=O)O)cc1)N2Cc1cn([C@H]2C[C@H](O)[C@@H](COP(=O)(O)O)O2)c(=O)[nH]c1=O (stereo partly drawn) | 7.52
